Measurements taken from paper PMC7070898 (Clinical and Translational Science, 2019).

Tests used:
[1] = tested on: experimental autoimmune encephalomyelitis; conditions: B cell‐dependent and T cell‐dependent EAE mouse models ref 9, 10; cited from earlier work
[2] = tested on: interferon‐accelerated systemic lupus erythematosus; conditions: mouse model of interferon‐accelerated systemic lupus erythematosus ref 8; cited from earlier work
[3] = Holter ECG, concentration-QTcF, by-time point and categorical analysis; assay type: in vivo, human; conditions: for mean ΔΔQTcF, by‐time point analysis: 100 mg dose group (n = 6); for Predicted mean ΔΔQTcF: linear mixed model; for Cmax: human, in vivo, Geometric mean Cmax
[4] = tested on: B cell and basophil activation; conditions: human cellular assays ref 8; cited from earlier work

For `C=CC(=O)N1CCC(CNc2ncnc(N)c2-c2ccc(Oc3ccccc3)cc2)CC1` [evobrutinib], the “central nervous system inflammation and disease severity” value [1] is listed as “limited central nervous system inflammation and disease severity”, the disease activity [2] is listed as “robust reduction in disease activity” and the “Geometric mean Cmax” value ([3]; 25 mg dose group, day 1, parts 1 and 2 pooled) is listed as 86.48 ng/mL. The “treatment‐emergent T wave morphological abnormalities” value ([3]; 50 mg and 100 mg dose groups, day 1, 6‐hour and 8‐hour postdose) was “reported in two evobrutinib‐treated subjects”, the “mean ΔΔQTcF, by‐time point analysis” value ([3]; 6‐hour postdose) was 7.1 ms and the “mean ΔΔQTcF, by‐time point analysis” value ([3]; 8‐hour postdose) was 5.6 ms. For the same molecule, the “mean ΔΔQTcF range” value ([3]; 100 mg dose group, three time points) was 5.6 to 7.2 ms, the “Geometric mean Cmax” value ([3]; 500 mg dose group, day 1) was 1,512.3 ng/mL and the “subjects with change from baseline in QTcF between 30 ms and 60 ms” value ([3]; 2 of 81 subjects, both in the 200 mg dose group) was 2.5%. For the same molecule, the “mean ΔΔQTcF over the range of doses” value ([3]; all time points, except the 100 mg dose group) was < 5 ms, the “absolute QTcF value” ([3]; any dose group, any time point) was ≤ 450 ms and the “Predicted mean ΔΔQTcF” value ([3]; at geometric mean Cmax of 75 mg dose group) was -0.82 ms. For the same molecule, the “Predicted mean ΔΔQTcF” value ([3]; at geometric mean Cmax of 200 mg dose group) was -0.94 ms, the “Predicted mean ΔΔQTcF” value ([3]; at geometric mean Cmax of 350 mg dose group) was -0.98 ms and the Cmax ([3]; 50 mg, 50 mg dose group, day 1) was 234 ng/mL. It also gave a Cmax ([3]; 75 mg, 75 mg dose group, day 1) of 254 ng/mL, a Cmax ([3]; 100 mg, 100 mg dose group, day 1) of 309 ng/mL and a Cmax ([3]; 350 mg, 350 mg dose group, day 1) of 846 ng/mL. For the same molecule, the “inhibition of B cell and basophil activation” value [4] was “potently inhibits B cell and basophil activation”.
